This is an account of results in ChEMBL document CHEMBL1145473, “Efficacy of the de novo-derived antimicrobial peptide WLBU2 against oral bacteria” (2007).

Assay [1] deals with Fusobacterium nucleatum. Description: Antimicrobial activity against Fusobacterium nucleatum biofilms assessed as decrease in viable cell count at 2 uM after 30 mins. It is filed as functional, organism-based.
Assay [2] has as its system Streptococcus gordonii. Description: Antimicrobial activity against Streptococcus gordonii DL1 ATCC 49818 biofilms assessed as decrease in viable cell count at 25 uM after 30 mins. It is filed as functional, organism-based.
Assay [3] relates to Fusobacterium nucleatum. Description: Antimicrobial activity against Fusobacterium nucleatum planktonic cells at 2 uM after 30 mins. It is filed as functional, organism-based.
A further assay concerns Pseudomonas aeruginosa. Description: Antimicrobial activity against Pseudomonas aeruginosa ATCC 47085 by broth dilution assay. The format is functional.
The test system of assay [4] is Fusobacterium nucleatum. Description: Antimicrobial activity against Fusobacterium nucleatum ATCC 49256 by broth dilution assay. It is filed as functional. Background: Broth dilution looks for growth in wells or tubes with falling amounts of substance.
The subject of assay [5] is Fusobacterium nucleatum. Description: Antimicrobial activity against Fusobacterium nucleatum ATCC 25586 by broth dilution assay. The format is functional.
For the next assay, the system named is Porphyromonas gingivalis. Description: Antimicrobial activity against Porphyromonas gingivalis W83 ATCC BAA0308 by broth dilution assay. The format is functional.
Assay [6] deals with Streptococcus gordonii. Description: Antimicrobial activity against Streptococcus gordonii DL1 ATCC 49818 by broth dilution assay. The format is functional.
In assay [7] the test system is Streptococcus gordonii. Description: Antimicrobial activity against Streptococcus gordonii DL1 ATCC 49818 planktonic cells at 25 uM after 30 mins. It is filed as functional, organism-based.

Activity calls are given as the source filed them.

As for `Cc1ncc([N+](=O)[O-])n1CCO`, in the assay with Fusobacterium nucleatum [1], the result was inactive.
On the same count and under the same terms, next, `CC1(C)S[C@@H]2[C@H](NC(=O)[C@H](N)c3ccc(O)cc3)C(=O)N2[C@H]1C(=O)O`: “inactive”.
As usually defined, the MBC is the smallest concentration meeting the test's criterion for killing. Low values mean more potent killing, high ones less potent killing. Take H-RRWVRRVRRWVRRVVRVVRRWVRR-OH: the result with Streptococcus gordonii [2], in the assay on Fusobacterium nucleatum [3] and with Streptococcus gordonii [7] was Active. Moreover, the MBC is 1 µM against Pseudomonas aeruginosa; 1 µM with Fusobacterium nucleatum [4]; 1 µM against Fusobacterium nucleatum [5]; 50 µM in the assay with Porphyromonas gingivalis; 12.5 µM against Streptococcus gordonii [6].
